Patent US11572369B2, “Bicyclic pyridine compositions and methods of using the same for cancer therapy” (UNIVERSITY OF SOUTH CAROLINA, priority 2019, dated 2023)

Columns and labels:
[1] = test system: CRPC cell line 22rv1 xenograft; assay: 22rv1 CRPC xenograft in castrated male nude mice; type: in vivo, mouse; conditions: 50 mg/kg orally daily
Protocol: In another in vivo study, CRPC cell line 22rv1 was grown as a xenograft in castrated male nude mice.

[2] = test system: luciferase-expressing MV4-11 cells; assay: MV4-11 leukemia in NSG mice, bioluminescence imaging; type: in vivo, mouse; conditions: for inhibition of leukemia growth (BLI): 23 days, NSG mice
Protocol: Assay protocol. For in vivo studies, 7-week-old female NSG mice (Jackson Laboratories) were injected with 2×10^6 luciferase-expressing MV4-11 cells in the tail vein. Following engraftment, BLI was performed on the inoculated mice 5 days after cell inoculation. After BLI, the mice were sorted into two matching cohorts of 10 mice and one cohort of 5 mice. BLI detection was done with IVIS Lumina II Series Hardware for In-Vivo Imaging with optional XFOV lens and Living Image software. The IVIS setting for sorting mice into cohorts was set for high sensitivity: Bin 8, F1.2, 180 sec. Subsequent exposures (week 1-5) were set for increased resolution: Bin 4, F1.2, 120 sec.
Treatment was initiated on day 6 following cell-inoculation and continued for 23 days. Ten mice received Vehicle only (5% carboxylmethyl cellulose) by gavage (200 μl). […] This diet matches the diet used for normal mouse feeding, with the exception of added dye and 15u. The control MV4-11 xenografted mice (Vehicle) developed a vigorous tumor population as detected by BLI (FIG. 10B-10C). […] Survival of the mice post treatment was monitored.

[3] = Long-term MTD study, medicated diet, CD-1 mice; type: in vivo, mouse; conditions: female CD-1 mice, 1000 ppm medicated diet, first week
Protocol: In another long-term MTD in vivo assay, groups of male and female CD-1 mice were fed regular diet (control) or 15u-medicated diet (500 ppm or 1000 ppm) for 4 or 5 weeks (FIG. 12B). The daily doses of 500 ppm and 1000 ppm groups were estimated to be about 50-100 mg/kg and 100-200 mg/kg, respectively, based on daily diet consumption.

[4] = Oral PK in female CD-1 mice, solution formulation; conditions: oral gavage in solution, 30 mg/kg (15u series) or 16/18 mg/kg (15w series)

Structure (SMILES) | adverse effects and body weight [1] | xenograft tumor growth [1] | inhibition of leukemia growth (BLI) ([2]; 30 mg/kg twice daily by gavage) [%] | inhibition of leukemia growth (BLI) ([2]; medicated chow containing 15u at 1 g/kg) [%] | survival post treatment ([2]; oral gavage, FIG. 10D) | weight loss [3] | PK (AUC 0-8 h) versus undeuterated parent [4]
CN(C)C(=O)c1ccc(N2CCCN(c3ccnc4sc(C(N)=O)c(N)c34)CC2)cc1 [15u, 3-amino-4-(4-(4-(dimethylcarbamoyl)phenyl)-1,4-diazepan-1-yl)thieno[2,3-b]pyridine-2-carboxamide] | no apparent adverse effects and no diminution of mouse body weight | strongly suppressed the tumor growth | 94 | 99.7 | superior survival rates | 5-10% | –
[2H]C([2H])([2H])N(C(=O)c1ccc(N2CCCN(c3ccnc4sc(C(N)=O)c(N)c34)CC2)cc1)C([2H])([2H])[2H] [15u_D6, 3-amino-4-(4-(4-(bis(methyl-d3)carbamoyl)phenyl)-1,4-diazepan-1-yl)thieno[2,3-b]pyridine-2-carboxamide] | – | – | – | – | – | – | slightly improved the PK
